Results reported in ChEMBL document CHEMBL1155697, “Chapecoderins A-C, new labdane-derived diterpenoids from Echinodorus macrophyllus” (J Nat Prod, 2000).
≈ marks a conversion by molar mass, not a printed value.

Tested on: L1210
Experiment: Cytotoxicity against mouse L1210 cells
Assay type: functional, cell-based

SMILES: CC(=O)CC[C@H]1C(C)(C)CCC[C@]1(C)C(=O)CCC1=CCOC1=O [CHAPECODERIN A]
- IC50: > 10 µg/mL

SMILES: CC(=O)[C@@H]1C[C@H]2C(C)(C)CCC[C@]2(C)[C@@]1(O)CCC1=CCOC1=O [CHAPECODERIN B]
- IC50: 7.2 µg/mL (≈ 21.5 µM)

SMILES: CC(=O)C1=C(CCC2=CCOC2=O)[C@@]2(C)CCCC(C)(C)[C@@H]2C1 [CHAPECODERIN C]
- IC50: 6 µg/mL (≈ 19 µM)
